From patent US20190054054A1, “Methods reducing or preventing oxidation of high density lipoprotein (HDL)” (Amarin Pharmaceuticals Ireland Limited, priority 2017, published 2019)

Columns and labels:
[1] = tested on: HUVECs; assay: NO and ONOO^− release from pretreated HUVECs exposed to native LDL undergoing oxidation (Example 11, Objective 3); type: cell-based, human; conditions: cells pretreated 30 min, agents each at 10 μM; native LDL 11 mg/dL pretreated with the same agents under auto-oxidation; 60 min
Method: The omega-3 fatty acid, cis-5,8,11,14,17-eicosapentaenoic acid (EPA) and docosahexaenoic acid (DHA) were purchased from Sigma-Aldrich (Saint Louis, Mo.) and solubilized in redistilled ethanol to 11 mM under nitrogen atmosphere. EPA and DHA stock solutions were stored at −20° C. until use.
Human umbilical vein endothelial cells (HUVECs) were obtained from healthy, female donors and isolated into primary, proliferating cell cultures (Clonetics, San Diego, Calif.). The cells were incubated in 95% air/5% CO2 at 37° C. and passaged by an enzymatic (trypsin) procedure. The confluent cells (4 to 5×10^5 cells/35 mm dish) were plated with minimum essential medium containing 3 mM L-arginine and 0.1 mM BH4 [(6R)-5,6,7,8-tetrahydrobiopterin]. Before experimental use, the cells (from second or third passage) were rinsed twice with Tyrode-HEPES buffer with 1.8 mM CaCl2.
Venous blood was collected from healthy volunteers into vacutainer tubes containing sodium EDTA. Plasma was separated by centrifugation at 3000 g for 25 min at 4° C. and adjusted to a density of 1.020 g/mL with KBr. Triglyceride-rich lipoproteins (TGRL) and LDL fractions were isolated by sequential centrifugation at 70,000 rpm at 4° C. in a Beckman LE-80 ultracentrifuge using a Beckman 50.4Ti rotor (Beckman Coulter, Inc., Fullerton, Calif.). The TGRL fraction (with a relative density of <1.020) was aspirated from the top of the centrifugate and discarded, leaving an LDL-enriched infranate (with a relative density of 1.020-1.063). The LDL subfraction was retained for additional experimentation. Plasma and lipoprotein fractions were maintained at 4° C. and protected from excessive exposure to light. Prior to oxidation experiments, EDTA was removed from the lipoprotein fraction using PD-10 desalting columns (GE Healthcare, Piscataway N.J.). After equilibration of the column with phosphate buffered saline (PBS), 2.5 mL of the lipoprotein fraction was loaded on the column and the flow-through discarded. The lipoprotein was then eluted with 3 mL of PBS. The LDL fractions were further diluted with PBS to obtain a 100 μg/mL apoB100 concentration.
LDL underwent oxidation following the addition of 10 μM CuSO4. […] Sample TBARS concentrations were determined spectrophotometrically by measuring sample absorbances against a standard curve derived from the hydrolysis of 1,1,3,3-tetramethoxypropane. […]
The amperometric method (with a response time of 0.1 ms) provides a quantitative signal (current) that is directly proportional to changes (from basal levels) in NO or ONOO^− concentration. […] Basal NO or ONOO^− levels were measured by differential pulse voltammetry in separate experiments. […]

[2] = tested on: unfractionated LDL; assay: Copper-induced oxidation of unfractionated LDL, TBARS after 2 hr (Example 6); type: biochemical, human
[3] = tested on: human sdLDL; assay: Copper-induced sdLDL oxidation, TBARS after 2 hr (Example 6); type: biochemical; conditions: for reduction of TBARS levels compared to vehicle-treated controls: 10 μM CuSO4
Method: An experiment to study the antioxidant effect of EPA in small dense […] performed. […] Vitamin E (α-tocopherol) was purchased from Sigma-Aldrich and prepared in ethanol at 1.0 mM (E=[…] cm^-1 at 294 nm) just prior to experimental use. All test compounds were further diluted in ethanol or aqueous buffer as needed. Venous blood was collected from healthy volunteers into vacutainer tubes containing sodium EDTA. Plasma was separated by centrifugation at 3000 g for 25 min at 4° C. and adjusted to a density of 1.020 g/mL with KBr. Triglyceride-rich lipoproteins (TGRL) and LDL fractions were then isolated by sequential centrifugation at 70,000 rpm at 4° C. in a Beckman LE-80 ultracentrifuge using a Beckman 50.4Ti rotor (Beckman Coulter, Inc., Fullerton, Calif.). The TGRL fraction (with a relative density of <1.020) was aspirated from the top of the centrifugate and discarded, leaving an LDL-enriched […] relative density of 1.020 to 1.063). […] The sdLDL subfraction was retained for additional experimentation. Plasma and lipoprotein fractions were maintained at 4° C. and protected from excessive exposure to light. Prior to oxidation experiments, EDTA was removed from the lipoprotein fraction using PD-10 desalting columns (GE Healthcare, Piscataway N.J.). After equilibration of the column with phosphate buffered saline (PBS), 2.5 mL of the lipoprotein fraction was loaded on the column and the flow-through discarded. The lipoprotein was then eluted with 3 mL of PBS. […] Data are presented as mean+S.D. for (N) separate samples or treatment groups. Differences between groups were analyzed using the two-tailed, Student's t-test (for comparisons between only two groups) or ANOVA followed by Dunnett or Student-Newman-Keuls multiple comparisons post-hoc analysis (for comparisons between three or more groups).

| SMILES | NO [1] | ONOO^− [1] | reduction of TBARS levels ([2]; 10.0 μM, unfractionated LDL) | reduction of TBARS levels compared to vehicle-treated controls ([3]; 1.0 μM) | reduction of TBARS levels compared to vehicle-treated controls ([3]; 10.0 μM) | effect on LDL oxidation ([2]; 1.0 μM to 10.0 μM) | effect on sdLDL oxidation over the concentration range ([3]; 1.0 μM to 10.0 μM) |
| --- | --- | --- | --- | --- | --- | --- | --- |
| CC/C=C\C/C=C\C/C=C\C/C=C\C/C=C\C/C=C\CCC(=O)O [DHA, docosahexaenoic acid] | 406 ± 40 | 212 ± 26 | – | – | – | – | – |
| CC/C=C\C/C=C\C/C=C\C/C=C\C/C=C\CCCC(=O)O [EPA, cis-5,8,11,14,17-eicosapentaenoic acid] | 419 ± 37 | 207 ± 24 | 17% | 13% | 57% | – | – |
| Cc1c(C)c2c(c(C)c1O)CC[C@@](C)(CCC[C@H](C)CCC[C@H](C)CCCC(C)C)O2 [vitamin E, α-tocopherol] | – | – | – | – | 26% | did not inhibit LDL oxidation at any concentration | did not inhibit sdLDL oxidation except at the highest concentration |
